Measurements: patent publication US20220347118A1, “STABLE MEDICINAL CANNABIDIOL COMPOSITIONS” (CARDIOL THERAPEUTICS INC., priority 2019, published 2022)

Legend:
Solubility of CBD in BCP = format: physicochemical; conditions: in 1 mL of BCP and its derivatives
Protocol: For example, at least 300 mg of CBD can be dissolved in 1 mL of BCP and its derivatives. The enhanced stability of the CBD provides a composition with an acceptable shelf life and which can provide consistency in dosing and enhanced safety.

CB2 receptor = CB2 receptor (Homo sapiens, UniProt P34972); conditions: Proc Natl Acad Sci USA. 2008; 105(26):9099-104; cited from earlier work
CB2 receptor, sequence (P34972 whole entry): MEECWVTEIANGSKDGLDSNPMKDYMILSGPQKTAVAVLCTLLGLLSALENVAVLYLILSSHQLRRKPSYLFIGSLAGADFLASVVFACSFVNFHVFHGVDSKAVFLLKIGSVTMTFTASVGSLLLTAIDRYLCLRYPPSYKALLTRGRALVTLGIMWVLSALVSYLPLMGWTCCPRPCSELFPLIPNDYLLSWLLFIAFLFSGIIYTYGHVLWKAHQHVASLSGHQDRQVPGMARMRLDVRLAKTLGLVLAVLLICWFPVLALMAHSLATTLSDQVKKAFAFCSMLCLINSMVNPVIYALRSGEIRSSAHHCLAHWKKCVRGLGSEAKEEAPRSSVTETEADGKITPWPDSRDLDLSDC

SMILES	amount of CBD that can be dissolved in BCP (Solubility of CBD in BCP)	CB2 receptor binding / functional activity (CB2 receptor)
C=C(C)[C@@H]1CCC(C)=C[C@H]1c1c(O)cc(CCCCC)cc1O [CBD, cannabidiol]	at least 300 mg	–
C=C1CC/C=C(\C)CC[C@@H]2[C@@H]1CC2(C)C [β-caryophyllene, trans-(1R,9S)-8-Methylene-4,11,11-trimethylbicyclo[7.2.0]undec-4-ene]	–	selectively binds to the CB2 receptor and is a functional CB2 agonist
